Among the data in ChEMBL document CHEMBL4196205, “Dihydrochalcone Glucosides from the Subaerial Parts of Thonningia sanguinea and Their in Vitro PTP1B Inhibitory Activities” (J Nat Prod, 2018) are Activity, IC50 and inhibition values, retold here.

In series [1] the target is T1, Tyrosine-protein phosphatase non-receptor type 1 (Homo sapiens) (UniProt P18031).
T1 sequence (whole entry): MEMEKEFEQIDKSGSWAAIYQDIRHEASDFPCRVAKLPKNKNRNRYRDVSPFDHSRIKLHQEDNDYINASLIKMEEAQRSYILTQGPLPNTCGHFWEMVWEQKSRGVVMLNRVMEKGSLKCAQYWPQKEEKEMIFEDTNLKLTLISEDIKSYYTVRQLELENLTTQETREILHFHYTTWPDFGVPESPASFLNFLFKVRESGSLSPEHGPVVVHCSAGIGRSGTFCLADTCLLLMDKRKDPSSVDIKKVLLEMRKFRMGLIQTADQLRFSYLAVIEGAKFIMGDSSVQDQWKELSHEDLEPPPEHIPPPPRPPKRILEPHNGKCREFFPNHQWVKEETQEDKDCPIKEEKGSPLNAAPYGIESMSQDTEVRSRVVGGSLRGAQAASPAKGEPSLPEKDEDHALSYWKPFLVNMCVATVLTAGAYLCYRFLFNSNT
Kind of series: Inhibition of recombinant human PTP1B using pNPP as substrate assessed as residual activity at 30 uM after 30 mins by spectrometric method relative to control.

In series [2] the target is T2, Tyrosine-protein phosphatase non-receptor type 1 (Homo sapiens, UniProt P18031).
T2 sequence (P18031 whole entry): T1 sequence (whole entry)
Kind of series: Inhibition of recombinant human PTP1B using pNPP as substrate assessed as residual activity after 30 mins by spectrometric method.

Series [3] deals with T1, Tyrosine-protein phosphatase non-receptor type 1 (Homo sapiens). Kind of series: Inhibition of PTP1B in human HepG2 cells assessed as increase in insulin-stimulated IR tyrosine phosphorylation at Y1150/1151 residues preincubated for 30 mins followed by insulin addition measured after 5 mins by immuno blot method. Format: cell-based.
In series [4] the test system is HepG2. In words: Cytotoxicity against human HepG2 cells assessed as decrease in cell viability at > 30 uM after 24 hrs by resazurin dye based assay. As to conditions: hepg2, 24 h.
Series [5] relates to HepG2. Kind of series: Cytotoxicity against human HepG2 cells assessed as decrease in cell viability at > 30 uM after 24 hrs by crystal violet staining based assay. Conditions: hepg2, 24 h.

Consider `COc1cc(C[C@H]2CO[C@H](c3ccc(O)c(OC)c3)[C@H]2CO)ccc1O`, for which, in series [1], the Activity was found to be 86.1%.
Regarding `O=C(O[C@@H]1[C@@H](O)[C@H](Oc2cc(O)cc(O)c2C(=O)CCc2ccc(O)cc2)O[C@@H]2COC(=O)c3cc(O)c(O)c(O)c3-c3c(cc(O)c(O)c3O)C(=O)O[C@@H]12)c1cc(O)c(O)c(O)c1`, the IC50 (as a rule, the concentration that gives 50% inhibition) in series [2] was found to be 19.3 µM. For the same compound, the Activity in series [1] was found to be 20.8%.
Regarding `O=C1OC[C@H]2O[C@@H](Oc3cc(O)cc(O)c3C(=O)CCc3ccc(O)c(O)c3)[C@H](O)[C@@H](O)[C@@H]2OC(=O)c2cc(O)c(O)c(O)c2-c2c1cc(O)c(O)c2O`, the Activity in series [1] was 84.4%.
`O=C1OC[C@H]2O[C@@H](Oc3cc(O)c(C(=O)CCc4ccccc4)c(O)c3)[C@H](O)[C@@H](O)[C@@H]2OC(=O)c2cc(O)c(O)c(O)c2-c2c1cc(O)c(O)c2O` [THONNINGIANIN B]: the IC50 in series [2] came out at 21.7 µM. Further, the Activity in series [1] turned out to be 28.5%.
In the case of `O=C(CCc1ccccc1)c1c(O)cc(O[C@@H]2O[C@H](CO)[C@@H](O)[C@H](O)[C@H]2O)cc1O`, the Activity in series [1] amounted to 97.7%.
For the compound `O=C(CCc1ccc(O)c(O)c1)c1c(O)cc(O)cc1O[C@@H]1O[C@H](CO)[C@@H](O)[C@H](O)[C@H]1O`, the Activity in series [1] stood at 102%.
Still for that read-out and setting: with `COc1cc([C@H]2OC[C@H]3[C@@H]2CO[C@@H]3c2ccc(O)c(OC)c2)ccc1O` the figure was 98.6%.
As for `O=C(O[C@@H]1[C@@H](O)[C@H](Oc2cc(O)c(C(=O)CCc3ccccc3)c(O)c2)O[C@@H]2COC(=O)c3cc(O)c(O)c(O)c3-c3c(cc(O)c(O)c3O)C(=O)O[C@@H]12)c1cc(O)c(O)c(O)c1` [THONNINGIANIN A], the inhibition result in series [3] was “Dose-dependent effect”. The Activity result in the series on HepG2 [4] is “Toxic”; in the series on HepG2 [5], “Toxic”; in series [1], 1.9%. The IC50 in series [2] came out at 4.4 µM.
Take `COc1cc(/C=C/CO)ccc1O[C@@H]1O[C@H](CO)[C@@H](O)[C@H](O)[C@H]1O`: the Activity in series [1] is 99.2%.
Turning to `O=C(OC[C@H]1O[C@@H](Oc2cc(O)c(C(=O)CCc3ccccc3)c(O)c2)[C@H](O)[C@@H](O)[C@@H]1O)c1cc(O)c(O)c(O)c1`, the Activity in series [1] turned out to be 99.4%.
On the same count and under the same terms, with `O=C(OC[C@H]1O[C@@H](Oc2cc(O)cc(O)c2C(=O)CCc2ccc(O)c(O)c2)[C@H](O)[C@@H](O)[C@@H]1O)c1cc(O)c(O)c(O)c1` the figure was 91.7%.
With `O=C1OC[C@H]2O[C@@H](Oc3cc(O)c(C(=O)CCc4ccc(O)cc4)c(O)c3)[C@H](O)[C@@H](O)[C@@H]2OC(=O)c2cc(O)c(O)c(O)c2-c2c1cc(O)c(O)c2O`, the IC50 in series [2] worked out at 23.8 µM. Besides, the Activity in series [1] was 30.9%.
`O=C(O[C@@H]1[C@@H](O)[C@H](Oc2cc(O)cc(O)c2C(=O)CCc2ccc(O)c(O)c2)O[C@@H]2COC(=O)c3cc(O)c(O)c(O)c3-c3c(cc(O)c(O)c3O)C(=O)O[C@@H]12)c1cc(O)c(O)c(O)c1`: in series [2], the IC50 was 24.7 µM. For the same compound, in series [1], the Activity amounted to 29.2%.
